Assay results from US12054495B2, “Substituted macrocyclic compounds and related methods of treatment” (Alkermes, Inc., priority 2019, dated 2024).

Tests used:
Type in all cases: in vitro ADME
[1] = system: MDR1; assay: MDCK-MDR1 permeability assay; details: dog; for Papp A→B at 2 h, 3 μM: MDCK-MDR1, MDCK-MDR1 cells, apical to basolateral, 3 μM test compound, 2 hours at 37 degrees C; for efflux ratio at 2 h, 3 μM: MDCK-MDR1, Papp (basolateral to apical) divided by Papp (apical to basolateral), MDCK-MDR1 cells, read-out: Efflux ratio (ER)
Experimental: The bidirectional permeability (Apical to Basal and Basal to Apical directions) of test compounds in MDCK-MIDR1 cells were evaluated using MDCK-MIDR1 cells seeded in Solvo PreadyPort™ MIDCK 96-well plate. Once the plate was received from ReadyCell (Barcelona, Spain), it was treated as per PreadyPort™ user's manual.
For the Apical to Basolateral (A→B) permeability, 80 μL of test compound (3 μM) co-dosed with LY (Lucifer Yellow) (100 μM) in HBSS (Hank's Balanced Salt Solution) assay buffer was added to the donor side (A) while 250 μL of HBSS buffer was added to the receiver side (B). For the Basolateral to Apical (B→A) permeability, 255 μL of test compound (3 μM) in HBSS assay buffer was added to the donor side (B) while 75 μL of HBSS buffer containing LY (100 μM) was added to the receiver side (A).
The plate was placed in an incubator set at 37 degrees C. After 10 minutes of pre-warming, 5 μL aliquot was taken from donor compartment and set aside as the dosing solution. The MDCK-MDR1 incubation plate was placed back into the incubator for 2 hours of incubation at 37 degrees C. After 2 hours of incubation, 25 μL and 5 μL aliquots were removed from the receiver and donor sides, respectively. To the 5 μL aliquots taken from the donor sides (before and after a 2-hour incubation) were diluted with 20 μL of the HBSS buffer. All samples were mixed with 150 μL with acetonitrile containing internal standard (IS) and 200 μL water, and analyzed by LC-MS/MS.
The apparent permeability (Papp) was calculated using the following formula: Papp=dQ/dt×1/A×C0 where: • dQ/dt: amount of translocated material over incubation time (nmol/s) • A: area of insert (0.14 cm^2 for PreadyPort™ MDR1-96) • C0: initial concentration of product applied in apical (A→B) or basal (B→A) compartment (nmol/mL)
The efflux ratio (ER) was measured by dividing the Papp (basolateral to apical direction) by Papp (apical to basolateral direction). It is a general measure of the involvement of active processes. An ER>2 is considered positive for active transport.
The data reported in Table 3 were obtained according to the MDCK-MIDR1 permeability assay described above.

[2] = Hepatocytes stability assay (human hepatocytes); details: both sexes, cryopreserved hepatocytes, 1 μM test compound, 1×10^6 cell/mL, 37 degrees C, read-out: CLint (μL/min/million cells)
Experimental: (§1) In vitro metabolic stability was assessed using cryopreserved hepatocytes from male Sprague Dawley rats and a pool of 50 mixed gender humans (BioIVT, Baltimore, MD). The incubation mixtures were prepared by mixing 250 μL of pre-warmed KHB (Krebs-Henseleit buffer) containing 2×10^6 cell/mL of hepatocytes with 250 μL of pre-warmed KHB buffer containing 2 μM of test compounds in a 48-well plate, giving a final concentration of 1 μM test compound (0.1% DMSO) and 1×10^6 cell/mL of hepatocytes. The reaction mixture was incubated at 37 degrees C. A 50 μL aliquot of incubation mixture was taken at time points (0, 15, 30, 60, 120 and 240 minutes) and transferred into a 96-well plate containing 300 μL ice-cold acetonitrile (containing 30 ng/mL of labetalol and 10 ng/mL of Naltrexone-d3 as internal standards) and immediately placed in ice to terminate the reaction. Samples were centrifuged, and supernatants were transferred into 96-well plates for liquid chromatography with tandem mass spectrometry (LC-MS/MS) analysis to monitor the depletion of the test compound.
(§2) Data was calculated as percent remaining by assuming zero-minute time point peak area ratio (analyte/IS) as 100% and dividing remaining time point peak area ratios by zero-minute time point peak area ratio. Data were fitted to a first-order decay model to determine half-life. From a plot of log (ln) peak area against time, the slope of the line was determined. Subsequently, half-life (T1/2) and intrinsic clearance (CLint) were calculated using the equations below: Elimination rate constant (k)=(−slope) Half-life (T1/2)min=0.693/k Intrinsic Clearance (CLint) (mL/min/million cells)=(V×0.693)/T1/2 V=incubation volume mL/number of cells The in vitro T1/2 was converted to in vitro intrinsic clearance (CLint,hep) in units of mL/min/kg using the formula shown below:
(§3) [formula] The in vitro intrinsic clearance (CLint,hep) was scaled to in vivo hepatic clearance (CL,hep) using the following equation which was adapted from a well-stirred model.
(§4) [formula] where Q is the liver blood flow and fu is the fraction unbound (assumed to be unity in this case). All parameters used in the calculation are shown below (Table 4).
(§5) The extraction ratio (ER) was calculated by dividing the hepatic clearance of a compound to the liver blood flow. The data reported in Table 5 were obtained according to the human hepatocytes stability assay described above.

[3] = system: human hepatocytes; assay: Hepatocytes stability assay (human hepatocytes); details: scaled hepatic clearance divided by liver blood flow, fu assumed unity
Experimental: as §1, §2, §3, §4, §5

| Compound | Papp A→B at 2 h, 3 μM [1] [nm/s] | efflux ratio at 2 h, 3 μM [1] | hepatocyte CLint at 1 μM [2] [µL/min/1e6 cells] | Extraction Ratio (ER) [3] |
| --- | --- | --- | --- | --- |
| CS(=O)(=O)N[C@H]1CCCN2C(=O)CCOc3ccccc3C3CCC(CC3)OCC12 (stereo partly shown) [Compound 1] | 1.5 | > 100 | 14 | 0.67 |
| CS(=O)(=O)N[C@H]1CCCN2C(=O)CCCCOc3ccccc3C3CCC(CC3)OCC12 (stereo partly shown) [Compound 3] | 8 | 34 | 43 | 0.87 |
| CS(=O)(=O)N[C@H]1CCCN2C(=O)CCCOc3ccccc3C3CCC(CC3)OCC12 (stereo partly shown) [Compound 4] | 4.7 | 97 | 28 | 0.81 |
| CS(=O)(=O)N[C@H]1CCCN2CCOc3ccccc3C3CCC(CC3)OCC12 (stereo partly shown) [Compound 6] | 210 | 0.66 | 45 | 0.87 |
| CS(=O)(=O)N[C@H]1CCCN2C(=O)CCc3ccccc3C3CCC(CC3)OCC12 (stereo partly shown) [Compound 10] | 2.9 | 15 | 8.3 | 0.55 |
| CS(=O)(=O)N[C@H]1CCCN2C(=O)COc3c(F)cccc3C3CCC(CC3)OCC12 (stereo partly shown) [Compound 11] | 22 | 5.5 | 33 | 0.83 |
| CS(=O)(=O)N[C@H]1CCCN2CCOc3c(F)cccc3C3CCC(CC3)OCC12 (stereo partly shown) [Compound 13] | 260 | 0.55 | 47 | 0.88 |
| CS(=O)(=O)N[C@H]1CCN2C(=O)COc3ncccc3C3CCC(CC3)OCC12 (stereo partly shown) [Compound 18] | 39 | 2 | 23 | 0.77 |
| CC1(C)Oc2ccccc2C2CCC(CC2)OCC2[C@@H](NS(C)(=O)=O)CCCN2C1=O (stereo partly shown) [Compound 36] | 20 | 9.5 | 66 | 0.91 |
| CS(=O)(=O)N[C@H]1CCN2CCOc3ccccc3C3CCC(CC3)OCC12 (stereo partly shown) [Compound 39] | 240 | 0.49 | 47 | 0.88 |
| CS(=O)(=O)N[C@H]1CCCN2C(=O)C(F)(F)Oc3ccccc3C3CCC(CC3)OCC12 (stereo partly shown) [Compound 40] | 36 | 5.1 | 65 | 0.91 |
| CS(=O)(=O)N[C@H]1CCN2C(=O)COc3c(F)cccc3C3CCC(CC3)OCC12 (stereo partly shown) [Compound 42] | 110 | 1.3 | 52 | 0.89 |
| CS(=O)(=O)N[C@H]1CCN2C(=O)COc3c(F)cc(F)cc3C3CCC(CC3)OCC12 (stereo partly shown) [Compound 43] | 120 | 1.1 | 34 | 0.83 |
| CC1(C)CN2CCC[C@H](NS(C)(=O)=O)C2COC2CCC(CC2)c2ccccc2O1 (stereo partly shown) [Compound 44] | 63 | 1.9 | 65 | 0.91 |
| CS(=O)(=O)N[C@H]1CCCN2C(=O)C(F)(F)Oc3c(F)cc(F)cc3C3CCC(CC3)OCC12 (stereo partly shown) [Compound 52] | 12 | 12 | 44 | 0.87 |
| CS(=O)(=O)N[C@H]1CCN2C(=O)C(F)(F)Oc3ccccc3C3CCC(CC3)OCC12 (stereo partly shown) [Compound 53] | 28 | 7.9 | 19 | 0.92 |
| CS(=O)(=O)N[C@H]1CCN2C(=O)C(F)(F)Oc3c(F)cc(F)cc3C3CCC(CC3)OCC12 (stereo partly shown) [Compound 54] | 26 | 7.3 | 56 | 0.89 |
| CS(=O)(=O)N[C@H]1CCCN2C(=O)COc3ccc(Br)cc3C3CCC(CC3)OCC12 (stereo partly shown) [Compound 57] | 1.6 | 51 | 2.1 | 0.24 |
| CS(=O)(=O)N[C@H]1CCCN2CCOc3c(F)cc(F)cc3C3CCC(CC3)OCC12 (stereo partly shown) [Compound 58] | 15 | 10 | 62 | 0.90 |
| CS(=O)(=O)N[C@H]1CCCN2CCOc3ccc(Cl)cc3C3CCC(CC3)OCC12 (stereo partly shown) [Compound 61] | 20 | 5.5 | 33 | 0.83 |
| CS(=O)(=O)N[C@H]1CCCN2C(=O)COc3ncc(F)cc3C3CCC(CC3)OCC12 (stereo partly shown) [Compound 64] | 8.3 | 30 | 9 | 0.57 |
| CS(=O)(=O)N[C@H]1CCCN2CCOc3ncccc3C3CCC(CC3)OCC12 (stereo partly shown) [Compound 65] | 150 | 0.5 | 34 | 0.84 |
